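Following 48 hours of exposure in 96-well plates, responses at five concentrations were used to interpolate endpoints linearly. The concentration for 50% growth inhibition is given as GI50.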 The source made the active and inactive calls. No stated cut-off is given here; in the data, active = GI50 up to about 1.1 µM and inactive = higher.
Key:
Assay in all cases: NCI anticancer screen, dose series, 48 h
786-0 = tested on: 786-0
A549 = tested on: A549
ACHN = tested on: ACHN
BT-549 = tested on: BT-549
CAKI-1 = tested on: CAKI-1
COLO 205 = tested on: COLO 205
DU-145 = tested on: DU-145
HCC 2998 = tested on: HCC 2998
HCT-116 = tested on: HCT-116
HCT-15 = tested on: HCT-15
HL-60 = tested on: HL-60
HOP-62 = tested on: HOP-62
HOP-92 = tested on: HOP-92
HT-29 = tested on: HT-29
Hs-578T = tested on: Hs-578T
IGROV-1 = tested on: IGROV-1
KM12 = tested on: KM12
LOX IMVI = tested on: LOX IMVI
M14 = tested on: M14
MCF7 = tested on: MCF7
MDA-MB-231 = tested on: MDA-MB-231
MDA-MB-435 = tested on: MDA-MB-435
MDA-N = tested on: MDA-N
MOLT-4 = tested on: MOLT-4
Malme-3M = tested on: Malme-3M
NCI-H226 = tested on: NCI-H226
NCI-H23 = tested on: NCI-H23
NCI-H460 = tested on: NCI-H460
NCI-H522 = tested on: NCI-H522
NCI/ADR-RES = tested on: NCI/ADR-RES
OVCAR-3 = tested on: OVCAR-3
OVCAR-4 = tested on: OVCAR-4
OVCAR-5 = tested on: OVCAR-5
OVCAR-8 = tested on: OVCAR-8
PC-3 = tested on: PC-3
RPMI-8226 = tested on: RPMI-8226
SF-268 = tested on: SF-268
SF-295 = tested on: SF-295
SF-539 = tested on: SF-539
SK-MEL-28 = tested on: SK-MEL-28
SK-MEL-2 = tested on: SK-MEL-2
SK-MEL-5 = tested on: SK-MEL-5
SK-OV-3 = tested on: SK-OV-3
SN12C = tested on: SN12C
SNB-19 = tested on: SNB-19
SNB-75 = tested on: SNB-75
SR = tested on: SR
SW-620 = tested on: SW-620
T47D = tested on: T47D
TK-10 = tested on: TK-10
U-251 = tested on: U-251
UACC-257 = tested on: UACC-257
UACC-62 = tested on: UACC-62
UO-31 = tested on: UO-31
CCRF-CEM = tested on: CCRF-CEM
EKVX = tested on: EKVX
K562 = tested on: K562
RXF 393 = tested on: RXF 393

Structure (SMILES): Nn1c(CCCCCCCCc2nnc(-c3c(O)ccc4ccccc34)n2N)nnc1-c1c(O)ccc2ccccc12
- GI50 (786-0): > 100 µM (inactive)
- GI50 (A549): > 100 µM (inactive)
- GI50 (ACHN): > 100 µM (inactive)
- GI50 (BT-549): > 100 µM (inactive)
- GI50 (CAKI-1): > 100 µM (inactive)
- GI50 (COLO 205): > 100 µM (inactive)
- GI50 (DU-145): > 100 µM (inactive)
- GI50 (HCC 2998): > 100 µM (inactive)
- GI50 (HCT-116): > 100 µM (inactive)
- GI50 (HCT-15): > 100 µM
- GI50 (HL-60): > 100 µM (inactive)
- GI50 (HOP-62): > 100 µM (inactive)
- GI50 (HOP-92): > 100 µM (inactive)
- GI50 (HT-29): > 100 µM (inactive)
- GI50 (Hs-578T): > 100 µM (inactive)
- GI50 (IGROV-1): > 100 µM (inactive)
- GI50 (KM12): > 100 µM (inactive)
- GI50 (LOX IMVI): > 100 µM (inactive)
- GI50 (M14): > 100 µM (inactive)
- GI50 (MCF7): > 100 µM (inactive)
- GI50 (MDA-MB-231): > 100 µM (inactive)
- GI50 (MDA-MB-435): > 100 µM (inactive)
- GI50 (MDA-N): > 100 µM (inactive)
- GI50 (MOLT-4): > 100 µM (inactive)
- GI50 (Malme-3M): > 100 µM (inactive)
- GI50 (NCI-H226): > 100 µM (inactive)
- GI50 (NCI-H23): > 100 µM (inactive)
- GI50 (NCI-H460): > 100 µM (inactive)
- GI50 (NCI-H522): > 100 µM (inactive)
- GI50 (NCI/ADR-RES): > 100 µM (inactive)
- GI50 (OVCAR-3): > 100 µM (inactive)
- GI50 (OVCAR-4): > 100 µM (inactive)
- GI50 (OVCAR-5): > 100 µM (inactive)
- GI50 (OVCAR-8): > 100 µM (inactive)
- GI50 (PC-3): > 100 µM (inactive)
- GI50 (RPMI-8226): > 100 µM (inactive)
- GI50 (SF-268): > 100 µM (inactive)
- GI50 (SF-295): > 100 µM (inactive)
- GI50 (SF-539): > 100 µM (inactive)
- GI50 (SK-MEL-28): > 100 µM (inactive)
- GI50 (SK-MEL-2): > 100 µM (inactive)
- GI50 (SK-MEL-5): > 100 µM (inactive)
- GI50 (SK-OV-3): > 100 µM (inactive)
- GI50 (SN12C): > 100 µM (inactive)
- GI50 (SNB-19): > 100 µM (inactive)
- GI50 (SNB-75): > 100 µM (inactive)
- GI50 (SR): > 100 µM (inactive)
- GI50 (SW-620): > 100 µM (inactive)
- GI50 (T47D): > 100 µM (inactive)
- GI50 (TK-10): > 100 µM (inactive)
- GI50 (U-251): > 100 µM (inactive)
- GI50 (UACC-257): > 100 µM (inactive)
- GI50 (UACC-62): > 100 µM (inactive)
- GI50 (UO-31): > 100 µM (inactive)

Structure (SMILES): COc1ccc2nc(N/N=C/c3ccc(C)s3)cc(C)c2c1
- GI50 (786-0): 13 µM (inactive)
- GI50 (A549): > 100 µM (inactive)
- GI50 (ACHN): 17.7 µM (inactive)
- GI50 (BT-549): 14.9 µM (inactive)
- GI50 (CAKI-1): 23 µM (inactive)
- GI50 (CCRF-CEM): 28.1 µM (inactive)
- GI50 (COLO 205): 19.4 µM (inactive)
- GI50 (DU-145): 17.7 µM (inactive)
- GI50 (EKVX): 26.4 µM (inactive)
- GI50 (HCC 2998): 16 µM (inactive)
- GI50 (HCT-116): 4.65 µM (inactive)
- GI50 (HCT-15): 7.96 µM
- GI50 (HL-60): 27.2 µM (inactive)
- GI50 (HOP-62): 20.1 µM (inactive)
- GI50 (HOP-92): 13.9 µM (inactive)
- GI50 (HT-29): 6.08 µM (inactive)
- GI50 (Hs-578T): 22.1 µM (inactive)
- GI50 (IGROV-1): 26.2 µM (inactive)
- GI50 (K562): 14 µM (inactive)
- GI50 (KM12): 19.7 µM (inactive)
- GI50 (LOX IMVI): 16.3 µM (inactive)
- GI50 (M14): 16.6 µM (inactive)
- GI50 (MCF7): 18 µM (inactive)
- GI50 (MDA-MB-231): 21.5 µM (inactive)
- GI50 (MDA-MB-435): 19 µM (inactive)
- GI50 (MDA-N): 16.3 µM (inactive)
- GI50 (MOLT-4): 12.9 µM (inactive)
- GI50 (Malme-3M): 31 µM (inactive)
- GI50 (NCI-H226): 14.8 µM (inactive)
- GI50 (NCI-H23): 13.5 µM (inactive)
- GI50 (NCI-H522): 39.7 µM (inactive)
- GI50 (NCI/ADR-RES): 19.7 µM (inactive)
- GI50 (OVCAR-3): 19.6 µM (inactive)
- GI50 (OVCAR-4): 13.9 µM (inactive)
- GI50 (OVCAR-5): 15.7 µM (inactive)
- GI50 (OVCAR-8): 19.5 µM (inactive)
- GI50 (PC-3): 17.1 µM (inactive)
- GI50 (RPMI-8226): 11.2 µM (inactive)
- GI50 (RXF 393): 19.2 µM (inactive)
- GI50 (SF-268): 20.1 µM (inactive)
- GI50 (SF-295): 16.9 µM (inactive)
- GI50 (SF-539): 16.5 µM (inactive)
- GI50 (SK-MEL-28): 26.5 µM (inactive)
- GI50 (SK-MEL-2): 21.7 µM (inactive)
- GI50 (SK-MEL-5): 15.5 µM (inactive)
- GI50 (SK-OV-3): 22.9 µM (inactive)
- GI50 (SN12C): 17.9 µM (inactive)
- GI50 (SNB-19): 17.3 µM (inactive)
- GI50 (SNB-75): 24.3 µM (inactive)
- GI50 (SR): 25.4 µM (inactive)
- GI50 (SW-620): 25.1 µM (inactive)
- GI50 (T47D): 17.1 µM (inactive)
- GI50 (TK-10): 21.6 µM (inactive)
- GI50 (U-251): 21.1 µM (inactive)
- GI50 (UACC-257): 17.1 µM (inactive)
- GI50 (UACC-62): 16.8 µM (inactive)
- GI50 (UO-31): 17.7 µM (inactive)

Structure (SMILES): N=C(N)NS(=O)(=O)c1ccc(NNc2c3ccccc3nc3ccccc23)cc1
- GI50 (786-0): 10.1 µM (inactive)
- GI50 (A549): 9.1 µM (inactive)
- GI50 (ACHN): 3.63 µM (inactive)
- GI50 (BT-549): 1.18 µM (inactive)
- GI50 (CAKI-1): 15.8 µM (inactive)
- GI50 (CCRF-CEM): 1.23 µM (inactive)
- GI50 (COLO 205): 12.6 µM (inactive)
- GI50 (DU-145): 2.58 µM (inactive)
- GI50 (EKVX): 10.6 µM (inactive)
- GI50 (HCC 2998): 12.4 µM (inactive)
- GI50 (HCT-116): 8.34 µM (inactive)
- GI50 (HCT-15): 18.6 µM
- GI50 (HL-60): 4.49 µM (inactive)
- GI50 (HOP-62): 6.87 µM (inactive)
- GI50 (HOP-92): 2.96 µM (inactive)
- GI50 (HT-29): 7.28 µM (inactive)
- GI50 (Hs-578T): 23.9 µM (inactive)
- GI50 (IGROV-1): 15.2 µM (inactive)
- GI50 (K562): 6.04 µM (inactive)
- GI50 (KM12): 11.2 µM (inactive)
- GI50 (LOX IMVI): 3.59 µM (inactive)
- GI50 (M14): 12.8 µM (inactive)
- GI50 (MCF7): 2.48 µM (inactive)
- GI50 (MDA-MB-231): 15.7 µM (inactive)
- GI50 (MDA-MB-435): 16.2 µM (inactive)
- GI50 (MDA-N): 13.2 µM (inactive)
- GI50 (MOLT-4): 0.472 µM (active)
- GI50 (Malme-3M): 17.3 µM (inactive)
- GI50 (NCI-H226): 1.08 µM (active)
- GI50 (NCI-H23): 9.29 µM (inactive)
- GI50 (NCI-H460): 2.7 µM (inactive)
- GI50 (NCI-H522): 3.86 µM (inactive)
- GI50 (NCI/ADR-RES): 26.4 µM (inactive)
- GI50 (OVCAR-3): 4.04 µM (inactive)
- GI50 (OVCAR-4): 4.85 µM (inactive)
- GI50 (OVCAR-5): 17.6 µM (inactive)
- GI50 (OVCAR-8): 6.38 µM (inactive)
- GI50 (PC-3): 8.75 µM (inactive)
- GI50 (RPMI-8226): 12.6 µM (inactive)
- GI50 (RXF 393): 12.9 µM (inactive)
- GI50 (SF-268): 10.4 µM (inactive)
- GI50 (SF-295): 13.8 µM (inactive)
- GI50 (SF-539): 14.3 µM (inactive)
- GI50 (SK-MEL-28): 13.8 µM (inactive)
- GI50 (SK-MEL-2): 18.2 µM (inactive)
- GI50 (SK-MEL-5): 9.31 µM (inactive)
- GI50 (SK-OV-3): 11.1 µM (inactive)
- GI50 (SN12C): 4.23 µM (inactive)
- GI50 (SNB-19): 8.34 µM (inactive)
- GI50 (SNB-75): 16.5 µM (inactive)
- GI50 (SR): 0.596 µM (active)
- GI50 (SW-620): 9.31 µM (inactive)
- GI50 (T47D): 5.73 µM (inactive)
- GI50 (TK-10): 16.4 µM (inactive)
- GI50 (U-251): 5.97 µM (inactive)
- GI50 (UACC-257): 20 µM (inactive)
- GI50 (UACC-62): 11.9 µM (inactive)
- GI50 (UO-31): 13.6 µM (inactive)
